“Also recorded” adds a separate entry of the source.
Tests used:
[1] = tested on: human pancreas adenocarcinoma (PA-TU-8988T) cells; assay: MTT cell viability assay of cancer cells with or without CAP activation, followed by reactive species treatment; type: cell-based
[2] = tested on: human pancreas adenocarcinoma (PA-TU-8988T) cells; assay: as above; type: cell-based; conditions: for cell viability: 10 μM H2O2 on CAP-activated cells, 12.5 kHz, 1.53 lpm
Protocol: In this example, human pancreas adenocarcinoma (PA-TU-8988T) cells were used in conjunction with a Dulbecco's modified Eagle's medium (DMEM, 11965-118) from Life Technologies. The DMEM was mixed with 1% (v/v) antibiotic (penicillin and streptomycin) solution (Life Technologies). The media used in the cell culture were composed of DMEM supplemented with 10% (v/v) fetal bovine serum (ThermoFisher Scientific). The cells were cultured in a 96-well plate (61406-081, Corning). 100 μL of the cells-harvesting solution (3×10^4 cells/mL) were seeded in each well. Cancer cells were grown for 1 day under the standard culture condition (a humidified, 37 C, 5% CO2 environment). The media used to culture cells overnight were removed before any experiments were performed.
In the example system 200 in FIG. 2A, basic protocols were provided to determine the activation state of cancer cells. To perform the CAP sensitivity treatment, each well of the well plate 230 was filled with a 50 μL DMEM solution with the growing cells. Each of the cells in the 96-well plate 230 was treated by the CAP jet from the CAP jet device 202 vertically. The gap between the bottom of the 96-well plate 230 and the CAP source is 3 cm in this example. After the CAP treatment, 50 μL of new DMEM was transferred to replace the medium in the wells of the 96-well plate 230 treated by the CAP jet device 202.
As a result, cancer cells in the activation state were obtained when the CAP sensitivity treatment time was longer than 20 seconds. Reactive treatment was applied in the form of new H2O2 − DMEM added to the cells in the well plate 230. To make the new H2O2 − DMEM, 9.8 M H2O2 standard solution (Sigma-Aldrich, 216763) was added to DMEM with a designed concentration. Then, H2O2 − DMEM or NO2 − DMEM was transferred to affect the activated cancer cells in the designed experiments. The cell viability was measured by using MTT assay according to the standard protocols provided by the manufacturer (Sigma-Aldrich, M2128). The 96-well plate 230 was read by an H1 microplate reader manufactured by […] at an absorbance of 570 nm after shaking in the reader for 30 seconds. To perform the data analysis, the measured absorbance at 570 nm was processed to be a relative cell viability by the division of absorbance between the experimental group and the control group.
The CAP treatment and removal of the medium containing reactive species is the basic strategy to obtain the cancer cells in the activated state. Thus, the process for increasing the effectiveness of treating cancer cells with a follow up reactive treatment is as follows. The direct CAP sensitivity treatment (1 min) was first performed on each well of the 96-well plate 230. The cancer cells in the wells were immersed in 50 μL of DMEM. The DMEM was quickly removed (less than a minute) after the CAP sensitivity treatment. Then, the CAP-activated (treated) cancer cells were obtained. The cytotoxicity of H2O2 (10 μM) treatment on the CAP-treated (activated) cancer cells were compared with that on cancer cells without the CAP sensitivity treatment. The H2O2-containing DMEM was made by adding H2O2 standard solution (Sigma-Aldrich, 216763) in DMEM with a designed concentration (10 μM). All cells were cultured for 3 days before the final cell viability assay using a MTT assay (Sigma-Aldrich, M2128). The cell viability assay was performed following the standard protocols provided by the manufacturer. Finally, the absorbance at 570 nm was processed to be a relative cell viability (fold) by the division of absorbance between the experimental group and the control group. In the control group, cancer cells were just cultured in the untreated DMEM.

[3] = cited from earlier work
[4] = low concentration, CAP-activated cancer cells
[5] = low concentration, same cancer cells without activation

For OO [H2O2], the killing effect ([1]; 22 μM H2O2, cells activated by CAP (bars 414 and 444)) was about 50%, the killing effect ([1]; 22 μM H2O2, cells without activation (bars 416 and 446)) was “about 10%” and the “killing of cancer cells (in words)” value ([1]; 22 μM H2O2-DMEM, cells activated by CAP treatment) was “strongly kill”. The “inhibition on the cell viability (in words)” value ([1]; 22 μM H2O2-DMEM, cells without CAP treatment) was “very small inhibition”, the “killing effect (in words)” value ([1]; H2O2 15 μM and 22 μM, CAP-activated cells) was “strong killing effect” and the “killing effect (in words)” value ([1]; H2O2-DMEM 15 μM and 22 μM, cells without activation) was “did not cause strong killing effect”. For the same compound, the “killing effect (in words)” value ([2]; 10 μM H2O2, CAP-activated cells) was “significant killing effect”, the “killing effect (in words)” value ([2]; 10 μM H2O2, cells without CAP treatment (activation)) was “will not cause a killing effect; also recorded: does not cause a killing effect” and the cell viability ([2]; discharge voltage 3.15 kV) was 0.73 fold. For the same compound, the cell viability ([2]; discharge voltage 3.78 kV) was 0.38 fold, the cell viability ([2]; discharge voltage 4.67 kV) was 0.71 fold and the “effect on cell viability (in words)” value ([2]; H2O2 DMEM applied two hours after CAP treatment) was “does not have any effect on cell viability”. The “killing effect (in words)” value [2, 4] was “noticeable killing effect” and the “killing effect (in words)” value [2, 5] was “will not cause significant killing effect”.

For Cn1nnc2c(C(N)=O)ncn2c1=O [TMZ, Temozolomide], the “concentration range found in CSF” value [3] is listed as 10 to 25 µM.

With O=NO [NO2 −] the “killing effect (in words)” value [2, 4] was “noticeable killing effect” and the “killing effect (in words)” value [2, 5] was “will not cause significant killing effect”.
